US20260250320A1, “LIPIDATED PEPTIDE INHIBITORS OF INTERLEUKIN-23 RECEPTOR” (Janssen Pharmaceutica NV, priority 2023, published 2026)
Blank lines part the entries; values can stand above or below the molecule they belong to. *1 amine or outer side, *2 acyl side, *3 side chain or, on linkers, in order; H or OH if unused. Where a SMILES comes first, the peptide text is derived from it. Bridges are numbered along the chain shown (N, C = ends). Primed or numbered codes have the meaning given here. Side-chain parts run from the residue outwards. [ ]: non-standard residue; d: D form. The star is where a group is joined. PEG12 = NCCOCCOCCOCCOCCOCCOCCOCCOCCOCCOCCOCCOCCC(=O)O; Trp(7-Me,2,3-dihydro) = Cc1cccc2c1NCC2C[C@H](N)C(=O)O; Trp(7-Me) = Cc1cccc2c(C[C@H](N)C(=O)O)c[nH]c12; C20 diacid = O=C(O)CCCCCCCCCCCCCCCCCCC(=O)*; C18 diacid = O=C(O)CCCCCCCCCCCCCCCCC(=O)*; X20 = CC(=O)CCCCC[C@H](N[*:1])C(=O)[*:2]; Phe(4-Me) = Cc1ccc(C[C@H](N)C(=O)O)cc1; γGlu = O=C(O)[C@H](CCC(=O)[*:2])N[*:1]; 2Nal = N[C@@H](Cc1ccc2ccccc2c1)C(=O)O; AEF = NCCOc1ccc(C[C@H](N)C(=O)O)cc1; 3Pal = N[C@@H](Cc1cccnc1)C(=O)O; succiniccarn = not defined here; NMeK = CN[C@@H](CCCCN)C(=O)O; Pen = CC(C)(S)[C@H](N)C(=O)O; PEG2(3) = not defined here; Thp = NC1(C(=O)O)CCOCC1; Sar = CNCC(=O)O

Legend:
[1] = test system: IL-23-stimulated phosphorylated STAT3 in peripheral blood mononuclear cells (PBMCs); assay: PBMC pSTAT3 Assay; assay type: cell-based; conditions: PBMCs from healthy donors; 30 min preincubation with peptide; IL-23 5 ng/mL for 30 min; phospho-STAT3 by MSD
Summary of the method: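 Healthy-donor PBMCs expanded 4 days on anti-CD3 with 100 ng/mL IL-1β, starved ~4 h in RPMI-0.1% BSA, preincubated 30 min with peptide, then stimulated 30 min at 37 °C with 5 ng/mL IL-23. Lysate pSTAT3 measured by MSD phospho-STAT panel; IC50 derived.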

IL-23R = target: T1, IL-23R (Homo sapiens, UniProt Q5VWK5); assay: IL23R Reporter Assay; assay type: cell-based; conditions: HEK293 cells containing IL-23R, IL-12Rβ1 and STAT-inducible firefly luciferase reporter; 10 ng/mL IL-23 (EC90); 5 h
T1 construct: HEK293 cells containing IL-23R, IL-12Rβ1 and a firefly luciferase reporter gene driven by a STAT-inducible promoter (Promega); host or cells: HEK293
T1 sequence (Q5VWK5 24-629): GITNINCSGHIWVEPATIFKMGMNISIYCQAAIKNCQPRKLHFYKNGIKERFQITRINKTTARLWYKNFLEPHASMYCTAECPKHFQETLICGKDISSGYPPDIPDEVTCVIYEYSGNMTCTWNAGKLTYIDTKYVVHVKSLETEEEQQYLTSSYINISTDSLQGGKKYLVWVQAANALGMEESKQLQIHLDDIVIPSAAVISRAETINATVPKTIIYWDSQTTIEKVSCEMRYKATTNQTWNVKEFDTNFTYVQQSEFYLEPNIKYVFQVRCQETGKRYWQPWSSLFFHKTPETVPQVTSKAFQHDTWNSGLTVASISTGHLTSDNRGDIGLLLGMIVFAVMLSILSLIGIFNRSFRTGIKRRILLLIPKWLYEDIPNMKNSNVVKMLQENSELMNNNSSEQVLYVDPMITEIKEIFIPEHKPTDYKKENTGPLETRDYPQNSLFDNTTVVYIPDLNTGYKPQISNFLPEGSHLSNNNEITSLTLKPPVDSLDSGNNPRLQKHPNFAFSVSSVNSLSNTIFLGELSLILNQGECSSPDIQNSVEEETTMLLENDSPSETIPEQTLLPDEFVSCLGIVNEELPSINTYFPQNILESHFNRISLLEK
Summary of the method: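 HEK293 cells carrying IL-23R, IL-12Rβ1 and a STAT-driven firefly luciferase reporter (4000 cells/well) received compound, then 10 ng/mL IL-23 solution (EC90), and were incubated for 5 h at 37° C. BioGlo luminescence was normalised to IL-23 alone (0%) and 30 μM control inhibitor (100%). IC50 came from a 4-parameter Hill fit.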

[2] = target: T2, interleukin-23 receptor (IL-23R) (UniProt Q5VWK5 24-629, limits assumed); assay: cell-based or functional assay
T2 sequence (looked up): T1 sequence (Q5VWK5 24-629)

- IC50 (IL-23R): < 50 nM
Molecule: CC(=O)CCCCC[C@@H]1NC(=O)[C@H](Cc2c[nH]c3c(C)cccc23)NC(=O)[C@H]([C@@H](C)O)NC(=O)[C@H](CC(N)=O)NC(=O)[C@@H](NC(C)=O)C(C)(C)SSC(C)(C)[C@@H](C(=O)N[C@@H](Cc2ccc(OCCN)cc2)C(=O)N[C@@H](CCC(=O)O)C(=O)N[C@@H](CC(N)=O)C(=O)N[C@@H](Cc2cccnc2)C(=O)N(C)CC(=O)N[C@@H](CCCCNC(=O)CCOCCOCCOCCOCCOCCOCCOCCOCCOCCOCCOCCOCCNC(=O)CC[C@H](NC(=O)CCCCCCCCCCCCCCCCC(=O)O)C(=O)O)C(N)=O)NC1=O [compound 161, MeCO-Pen(3)-N-T-7MeW-K(Ac)-Pen(3)-AEF-2Nal-THP-E-N-3Pya-Sar-K(PEG12gEC18OH)-CONH2] (Ac-[Pen]NT[Trp(7-Me)][X20][Pen][AEF]EN[3Pal][Sar]K([PEG12-γGlu-C18 diacid])-NH2; disulfide 1-6)
- IC50 [1]: < 0.5 nM

- IC50 (IL-23R): 50 to 500 nM
Molecule: CC(=O)NCCCC[C@@H]1NC(=O)[C@H](CC2CNc3c(C)cccc32)NC(=O)[C@H]([C@@H](C)O)NC(=O)[C@H](CC(N)=O)NC(=O)[C@@H](NC(C)=O)C(C)(C)SSC(C)(C)[C@@H](C(=O)N[C@@H](Cc2ccc(C)cc2)C(=O)N[C@@H](Cc2ccc3ccccc3c2)C(=O)NC2(C(=O)N[C@@H](CCCCNC(=O)CCOCCOCCOCCOCCOCCOCCOCCOCCOCCOCCOCCOCCNC(=O)CC[C@H](NC(=O)CCCCCCCCCCCCCCCCCCC(=O)O)C(=O)O)C(=O)N[C@@H](CC(N)=O)C(=O)N[C@@H](Cc3cccnc3)C(=O)N(C)CC(N)=O)CCOCC2)NC1=O (stereo partly drawn) [compound 162, MeCO-Pen(3)-N-T-7MeW-K(Ac)-Pen(3)-AEF-2Nal-THP-K(PEG12gEC20OH)-N-3Pya-Sar-CONH2] (Ac-[Pen]NT[Trp(7-Me,2,3-dihydro)]K(Ac)[Pen][Phe(4-Me)][2Nal][Thp]K([PEG12-γGlu-C20 diacid])N[3Pal][Sar]-NH2; disulfide 1-6)
- IC50 [1]: < 0.5 nM

- PBMC pSTAT3 IC50 [2]: < 0.5 nM
B1: SEQ ID NO: 2 (peptide)
peptide: XNTXXXXXXXNXXK
modifications: not fully specified; MeCO-Pen(3)-N-T-7MeW-K(Ac)-Pen(3)-AEF-2Nal-THP-K(Ac)-N-3Pya-Sar-K(PEG2NMePEG2NMegENMeC18Tetrazole)-CONH2

- PBMC pSTAT3 IC50 [2]: < 0.5 nM
B2: SEQ ID NO: 18 (peptide)
peptide: succiniccarn-[dR][Pen]K([PEG2(3)-PEG2(3)-γGlu-C18OH])T[Trp(7-Me)]K(Ac)[Pen][AEF][2Nal][Thp]EN[3Pal][Sar]-NH2
modifications: disulfide 2-7 (inferred); reading uncertain; also: printed as succiniccarn-r-Pen(3)-K(PEG2PEG2gEC18OH)-T-7MeW-K(Ac)-Pen(3)-AEF-2Nal-THP-E-N-3Pya-Sar-CONH2

- PBMC pSTAT3 IC50 [2]: < 0.5 nM
B3: SEQ ID NO: 17 (peptide)
peptide: Ac-K[Pen]NT[Trp(7-Me)]K(Ac)[Pen]X[2Nal][Thp]EN[3Pal][Sar]-NH2
modifications: disulfide 2-7 (inferred); not fully specified (residues 1, 8); printed as MeCO-k(PEG2PEG2gEC18OH)-Pen(3)-N-T-7MeW-K(Ac)-Pen(3)-AEF(d)-2Nal-THP-E-N-3Pya-Sar-CONH2

- PBMC pSTAT3 IC50 [2]: < 0.5 nM
B4: SEQ ID NO: 16 (peptide)
peptide: Ac-[dR][Pen]NT[Trp(7-Me)]K(Ac)[Pen]X[2Nal][Thp]EN[3Pal][NMeK]-NH2
modifications: disulfide 2-7 (inferred); not fully specified (residues 8, 14); printed as MeCO-r-Pen(3)-N-T-7MeW-K(Ac)-Pen(3)-AEF(d)-2Nal-THP-E-N-3Pya-NMeK(PEG2PEG2gEC18OH)-CONH2
